This note sets out measurements from paper PMC9412534, “Diindolylmethane Derivatives: New Selective Blockers for T-Type Calcium Channels” (Membranes, 2022).

Entries after “also recorded” stand apart in the source; their conditions may differ. Where only a bound is given, the exact number is not on record here.

Assay [1] deals with T-47D cells. In words: Cell viability MTT assay, T-47D. Format: cell-based, human. The note with it: for viability at 50 µM: n = 4; for IC50: n = 3. As to the method: (§1) Human breast cancer cell line MCF-7 and T-47D, lung cancer cell line A549, and colon cancer cell line HT-29 were cultured under 5% carbon dioxide at 37 °C in DMEM Glutamax (Gibco, Life Technologies) supplemented with 10% (v/v) FBS. They were split in a ratio of 1:3–1:6 (ideally 2–4 × 10,000 cells/cm^2) when they reached 70–80% confluence using 0.25% Trypsin-EDTA. For cell viability MTT assay, cells were seeded into 96-well clear bottom culture plates (Corning, Lowell, MA, USA) at a density of 5 × 10^3 cells/well and settled at 37 °C for 24 h.
(§2) Seeded cells were treated with various concentrations of compounds for desired time period (24, 48 and 72 h). After the treatments, the media were removed from each well, and replaced with 25 μL of serum-free media and 25 μL of MTT Reagent (cat. no., ab211091; Abcam, Cambridge, MA, USA). The plate was then incubated at 37 °C for 3 h, and 75 μL of MTT Solvent (cat. no., ab211091; Abcam) was added into each well after incubation. The absorbance was evaluated at 590 nm. Cell-wells treated with 0.1% DMSO were used as positive control and no cell-wells were used as background control.
On the technique in general: Tetrazolium dyes change colour on reduction, which living cells bring about.

Assay [2] deals with T1, recombinant hCaV3.2 channels (Homo sapiens, UniProt O95180).
T1 construct: the only CaV3.2-expressing cells described
Put plainly: Whole-cell patch-clamp (QPatch), CaV3.2. The note with it: for IC50: whole-cell current, holding potential −90 mV, n = 3–5; for extent of block of CaV3.2 whole-cell inward Ca2+ current: QPatch. Format: cell-based. As for the experimental part:
(§3) The human embryonic kidney 293 (HEK 293) cell lines (from Emmanuel Bourinet, Montpellier, France) stably expressing CaV3.2 or CaV3.3 were cultured under 5% carbon dioxide at 37 °C in Dulbecco’s Modified Eagle Medium (DMEM) Glutamax (Gibco, Life Technologies, Carlsbad, CA, USA) supplemented with 10% (v/v) fetal bovine serum (FBS), 100 U/mL penicillin, 100 μg/mL streptomycin (Gibco, Life Technologies, Carlsbad, CA, USA), and 750 μg/mL geneticin (G418) (Gibco, Life Technologies). The Chinese Hamster Ovary (CHO) cell lines (Emmanuel Bourinet, Montpellier, France) expressing CaV3.1 were cultured under 5% carbon dioxide at 37 °C in Alpha Minimum Essential Media (MEM) Glutamax (Gibco, Life Technologies), supplemented with 10% (v/v) fetal bovine serum (FBS) and 300 μg/mL geneticin (G418) (Gibco, Life Technologies). The human neuroblastoma SH-SY5Y cells (Victor Diaz, Goettingen, Germany) were cultured under 5% carbon dioxide at 37 °C in RPMI 1640 antibiotic-free medium (Invitrogen, Carlsbad, CA, USA), supplemented with 15% FBS and 2 mM GlutaMAX™ (Invitrogen). D-PBS (Gibco, Life Technologies) was used to wash the cells, and 0.25% Trypsin-EDTA (Gibco, Life Technologies) was used to detach cells from the flask surface. They were split in a ratio of 1:5 (ideally 1000 cells/cm^2) when they reached 70–80% confluence (every 2–3 days). Transiently transfected CaV3.1 HEK293 T cells were used in FLIPR Assays. HEK 293 T cells were cultured under 5% carbon dioxide at 37 °C in DMEM supplemented with 10% (v/v) FBS. D-PBS was used to wash the cells, and 0.25% Trypsin-EDTA was used to detach cells from the flask surface. The cells were split and seeded at 6 million cells per T175 flask, to reach 70–80% confluence after 24 h. The next day, 12 μg DNA of human CaV3.1 was incubated in 900 μL serum-free DMEM with 36 μL FuGENE HD transfection reagent (Promega Corporation, Madison, WI, USA) (1:3 DNA/Fugene ratio) for 20 min, and then the mixture was added into the cell flask slowly, drop by drop. After the transfection, the cells were cultured under 5% carbon dioxide at 37 °C for 24 h and then moved to a 28 °C incubator.
(§4) Whole-cell patch-clamp experiments were performed on an automated electrophysiology platform QPatch 16 X (Sophion Bioscience A/S, Ballerup, Denmark) in single-hole configuration using 16-channel planar patch chip QPlates (Sophion Bioscience A/S). The extracellular recording solution contained, in mM: TEACl 157, MgCl2 0.5, CaCl2 5, and HEPES 10; pH 7.4 adjusted with TEAOH; and osmolarity 320 mOsm. The intracellular pipette solution contained, in mM: CsF 140, EGTA 1, HEPES 10, and NaCl 10; pH 7.2 adjusted with CsOH; and osmolarity 325 mOsm. Compounds were diluted in extracellular recording solution with 0.1% BSA at the concentrations stated (DMSO ≤ 0.1%), and the effects of compounds were compared to the control (extracellular solution with 0.1% BSA) parameters within the same cell. Compounds’ incubation time varied from two (for the highest concentration) to five (for the lowest concentration) minutes by applying the voltage protocol 10–30 times at 10 s intervals to ensure steady-state inhibition was achieved. The effects of compounds were obtained using 200 ms voltage steps to peak potential from a holding potential of −90 mV. Current–voltage (I–V) relationships were obtained by holding the cells at a potential of −100 mV before applying 50 ms pulses to potentials from −75 to +50 mV every 5 s in 5 mV increments. […]
For orientation: In patch-clamp work, channel activity is measured electrically.

Assay [3] deals with T2, recombinant hCaV3.3 channels (Homo sapiens, UniProt Q9P0X4).
T2 construct: the only CaV3.3-expressing cells described
In words: Whole-cell patch-clamp (QPatch), CaV3.3. Format: cell-based. The following applies: for IC50: whole-cell current, holding potential −90 mV, n = 3–5; for extent of block of CaV3.3 whole-cell inward Ca2+ current: QPatch. As to the method: as §3, §4

The test system of assay [4] is A549 cells. Put plainly: Cell viability MTT assay, A549. Format: cell-based, human. The following applies: for viability at 50 µM: A549, 50 µM, n = 4; for IC50: n = 3. As for the experimental part: as §1, §2
The mark [5] stands for this setting: Homo sapiens, T47D, 72 h treatment.
[6] abbreviates: Homo sapiens, T47D, 72 h, 72 h treatment.
Where [7] appears, read: Homo sapiens, A549, 72 h, 72 h treatment.

T1 sequence (O95180 whole entry): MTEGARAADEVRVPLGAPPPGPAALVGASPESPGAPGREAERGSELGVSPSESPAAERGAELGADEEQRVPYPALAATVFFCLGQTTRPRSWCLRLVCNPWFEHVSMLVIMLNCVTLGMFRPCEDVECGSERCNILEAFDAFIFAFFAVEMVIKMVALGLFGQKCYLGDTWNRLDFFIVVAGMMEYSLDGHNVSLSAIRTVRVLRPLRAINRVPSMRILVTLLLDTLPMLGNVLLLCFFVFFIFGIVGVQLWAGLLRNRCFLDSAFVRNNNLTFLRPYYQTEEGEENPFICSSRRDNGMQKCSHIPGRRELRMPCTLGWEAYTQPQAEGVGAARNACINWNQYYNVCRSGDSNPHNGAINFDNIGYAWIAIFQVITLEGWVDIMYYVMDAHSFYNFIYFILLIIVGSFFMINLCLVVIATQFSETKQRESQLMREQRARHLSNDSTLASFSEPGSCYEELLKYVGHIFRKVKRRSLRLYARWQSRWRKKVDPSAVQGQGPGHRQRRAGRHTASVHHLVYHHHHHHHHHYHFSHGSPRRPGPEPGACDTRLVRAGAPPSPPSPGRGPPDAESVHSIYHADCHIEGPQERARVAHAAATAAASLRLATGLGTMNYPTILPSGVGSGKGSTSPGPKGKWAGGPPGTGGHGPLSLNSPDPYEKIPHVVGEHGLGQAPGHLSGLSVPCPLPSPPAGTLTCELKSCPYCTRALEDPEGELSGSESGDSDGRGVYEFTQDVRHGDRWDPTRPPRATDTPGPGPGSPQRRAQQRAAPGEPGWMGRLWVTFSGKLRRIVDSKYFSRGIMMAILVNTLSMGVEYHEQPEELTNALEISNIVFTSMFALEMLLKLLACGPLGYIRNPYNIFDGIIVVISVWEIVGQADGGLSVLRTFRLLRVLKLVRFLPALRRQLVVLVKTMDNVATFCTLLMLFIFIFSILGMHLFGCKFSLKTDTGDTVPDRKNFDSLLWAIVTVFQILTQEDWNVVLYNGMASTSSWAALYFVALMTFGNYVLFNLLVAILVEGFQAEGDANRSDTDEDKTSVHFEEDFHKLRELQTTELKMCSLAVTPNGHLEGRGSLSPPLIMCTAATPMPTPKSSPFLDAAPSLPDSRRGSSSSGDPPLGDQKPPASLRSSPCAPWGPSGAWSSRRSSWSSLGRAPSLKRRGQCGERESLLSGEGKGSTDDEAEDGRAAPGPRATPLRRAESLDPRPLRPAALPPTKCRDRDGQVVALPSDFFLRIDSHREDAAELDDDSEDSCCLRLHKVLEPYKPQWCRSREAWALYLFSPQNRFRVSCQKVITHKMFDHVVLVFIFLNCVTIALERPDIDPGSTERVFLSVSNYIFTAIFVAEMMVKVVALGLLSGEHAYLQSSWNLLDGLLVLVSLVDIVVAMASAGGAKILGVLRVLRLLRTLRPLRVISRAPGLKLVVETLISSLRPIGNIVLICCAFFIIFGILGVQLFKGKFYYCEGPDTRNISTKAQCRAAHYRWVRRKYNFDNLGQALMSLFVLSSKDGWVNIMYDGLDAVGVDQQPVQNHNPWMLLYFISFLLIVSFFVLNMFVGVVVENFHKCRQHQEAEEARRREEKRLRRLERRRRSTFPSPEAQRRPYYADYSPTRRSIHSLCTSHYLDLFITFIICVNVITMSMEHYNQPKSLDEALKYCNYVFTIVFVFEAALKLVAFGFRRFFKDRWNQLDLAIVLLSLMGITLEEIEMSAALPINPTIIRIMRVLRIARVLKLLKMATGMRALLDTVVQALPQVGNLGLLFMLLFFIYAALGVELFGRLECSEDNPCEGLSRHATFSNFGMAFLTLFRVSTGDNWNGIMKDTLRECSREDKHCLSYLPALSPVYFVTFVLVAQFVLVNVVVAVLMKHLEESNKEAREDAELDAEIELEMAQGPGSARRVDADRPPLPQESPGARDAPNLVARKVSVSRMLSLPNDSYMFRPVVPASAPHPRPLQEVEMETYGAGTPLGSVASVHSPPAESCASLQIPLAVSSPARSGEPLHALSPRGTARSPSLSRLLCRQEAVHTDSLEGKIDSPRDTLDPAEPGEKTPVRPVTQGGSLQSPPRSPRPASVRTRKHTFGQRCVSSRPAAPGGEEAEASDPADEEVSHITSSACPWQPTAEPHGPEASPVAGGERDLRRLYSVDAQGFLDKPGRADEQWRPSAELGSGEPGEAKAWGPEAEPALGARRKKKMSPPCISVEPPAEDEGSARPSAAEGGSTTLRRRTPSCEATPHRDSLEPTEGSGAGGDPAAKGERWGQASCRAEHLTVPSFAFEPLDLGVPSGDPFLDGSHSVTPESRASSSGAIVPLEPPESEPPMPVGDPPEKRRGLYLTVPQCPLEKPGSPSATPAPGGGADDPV
T2 sequence (Q9P0X4 whole entry): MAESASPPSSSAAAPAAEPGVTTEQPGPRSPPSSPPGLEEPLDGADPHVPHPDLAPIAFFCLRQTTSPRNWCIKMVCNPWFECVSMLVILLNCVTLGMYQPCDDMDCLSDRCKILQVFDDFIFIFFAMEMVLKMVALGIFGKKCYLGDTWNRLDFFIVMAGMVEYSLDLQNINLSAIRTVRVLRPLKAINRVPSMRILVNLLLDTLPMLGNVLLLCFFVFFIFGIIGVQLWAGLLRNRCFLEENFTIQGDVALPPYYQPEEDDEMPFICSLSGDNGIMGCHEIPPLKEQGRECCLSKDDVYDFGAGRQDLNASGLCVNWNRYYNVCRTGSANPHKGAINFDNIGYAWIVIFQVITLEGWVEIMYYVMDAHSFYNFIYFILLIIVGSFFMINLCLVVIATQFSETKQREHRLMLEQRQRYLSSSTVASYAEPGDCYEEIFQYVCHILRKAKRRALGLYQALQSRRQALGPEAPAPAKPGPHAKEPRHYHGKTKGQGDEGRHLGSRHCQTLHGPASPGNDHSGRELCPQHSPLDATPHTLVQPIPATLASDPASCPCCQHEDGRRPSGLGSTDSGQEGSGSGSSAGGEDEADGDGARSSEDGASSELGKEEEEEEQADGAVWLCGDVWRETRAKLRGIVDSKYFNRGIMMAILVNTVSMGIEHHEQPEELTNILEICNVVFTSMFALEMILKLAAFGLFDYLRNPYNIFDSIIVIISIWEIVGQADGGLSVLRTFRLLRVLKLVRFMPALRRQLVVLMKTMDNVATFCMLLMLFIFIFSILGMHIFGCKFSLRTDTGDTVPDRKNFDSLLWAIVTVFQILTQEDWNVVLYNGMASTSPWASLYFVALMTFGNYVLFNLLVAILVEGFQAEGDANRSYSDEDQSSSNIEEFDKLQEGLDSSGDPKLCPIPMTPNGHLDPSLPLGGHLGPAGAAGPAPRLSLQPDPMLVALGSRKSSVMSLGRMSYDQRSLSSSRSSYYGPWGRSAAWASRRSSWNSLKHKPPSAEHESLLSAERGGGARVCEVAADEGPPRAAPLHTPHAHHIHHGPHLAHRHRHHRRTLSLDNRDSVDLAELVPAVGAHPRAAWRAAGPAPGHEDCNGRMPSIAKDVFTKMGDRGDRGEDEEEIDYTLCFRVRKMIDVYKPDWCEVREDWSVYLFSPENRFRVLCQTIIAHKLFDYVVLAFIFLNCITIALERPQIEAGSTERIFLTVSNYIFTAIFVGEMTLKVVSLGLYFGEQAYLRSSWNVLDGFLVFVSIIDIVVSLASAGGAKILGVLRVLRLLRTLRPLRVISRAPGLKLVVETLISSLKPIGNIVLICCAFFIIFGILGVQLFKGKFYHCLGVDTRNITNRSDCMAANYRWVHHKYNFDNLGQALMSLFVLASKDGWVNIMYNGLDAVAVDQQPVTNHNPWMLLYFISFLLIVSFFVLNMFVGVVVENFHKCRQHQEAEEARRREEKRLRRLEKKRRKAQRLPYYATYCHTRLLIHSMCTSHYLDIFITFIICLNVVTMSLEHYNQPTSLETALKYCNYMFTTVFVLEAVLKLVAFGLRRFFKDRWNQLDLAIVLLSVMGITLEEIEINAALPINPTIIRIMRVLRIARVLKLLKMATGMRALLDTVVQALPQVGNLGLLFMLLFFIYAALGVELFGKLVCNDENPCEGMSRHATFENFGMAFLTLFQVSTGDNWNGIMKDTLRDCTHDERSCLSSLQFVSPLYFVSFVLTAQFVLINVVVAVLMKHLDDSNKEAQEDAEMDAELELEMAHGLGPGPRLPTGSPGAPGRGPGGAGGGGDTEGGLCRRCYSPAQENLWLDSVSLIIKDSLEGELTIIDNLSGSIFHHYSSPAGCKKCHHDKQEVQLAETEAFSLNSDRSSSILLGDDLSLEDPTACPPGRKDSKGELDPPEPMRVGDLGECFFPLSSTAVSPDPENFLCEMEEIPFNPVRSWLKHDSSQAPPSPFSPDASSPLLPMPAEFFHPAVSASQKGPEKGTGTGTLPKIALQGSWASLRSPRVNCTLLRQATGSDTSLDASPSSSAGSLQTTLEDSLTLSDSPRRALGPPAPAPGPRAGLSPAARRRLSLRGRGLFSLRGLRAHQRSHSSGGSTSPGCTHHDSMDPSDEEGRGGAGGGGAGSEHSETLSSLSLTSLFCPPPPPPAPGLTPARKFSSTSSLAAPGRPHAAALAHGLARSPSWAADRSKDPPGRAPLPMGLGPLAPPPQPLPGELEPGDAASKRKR

Consider `c1ccc2c(Cc3c[nH]c4ccccc34)c[nH]c2c1` [DIM, 3,3′-diindolylmethane, reference compound], for which the viability at 50 µM in assay [1] (setting [5]) is 18.9 ± 1.15%; in assay [4] (Homo sapiens, 72 h treatment), 55.6 ± 1.13%. Further, the IC50 is 36 µM in assay [1] (setting [6]), 21.1 ± 1.19 µM in assay [2], 9.63 ± 0.97 µM in assay [3] and 47 µM in assay [4] (setting [7]).

Consider `O=C(c1c[nH]c2ccccc12)c1c[nH]c2ccccc12` [DIM-one, 3,3′-diindolylmethanone], for which the viability at 50 µM in assay [1] (setting [5]) was 50.6 ± 2.08%; in assay [4] (Homo sapiens, 72 h treatment) it was 81.3 ± 3%. Moreover, the IC50 in assay [1] (setting [6]) is 44 µM; in assay [2] it was approximately 50 µM; in assay [3], more than 50 µM; in assay [4] (setting [7]), 66 µM. In addition, the “extent of block of CaV3.2 whole-cell inward Ca2+ current” value in assay [2] was “poor inhibition”. Besides, the “extent of block of CaV3.3 whole-cell inward Ca2+ current” value in assay [3] was “poor inhibition”.

Regarding `O=C(c1c[nH]c2cc(Br)ccc12)c1c[nH]c2cc(Br)ccc12` [IV], the IC50 is 4.1 µM in assay [1] (72 h treatment); 13.8 µM in assay [1] (Homo sapiens, T47D, 24 h, 24 h treatment); 3.9 µM in assay [1] (Homo sapiens, T47D, 48 h, 48 h treatment); 4 µM in assay [1] (setting [6]); 3.5 µM in assay [4] (72 h treatment); 8 µM in assay [4] (Homo sapiens, A549, 24 h, 24 h treatment). The IC50 in assay [4] (Homo sapiens, A549, 48 h, 48 h treatment) was 4.7 µM; in assay [4] (setting [7]), 3 µM. The viability at 50 µM is 6.14 ± 0.55% in assay [1] (setting [5]) and 2.92 ± 0.29% in assay [4] (Homo sapiens, 72 h treatment).

As for `O=C(c1cn(Cc2ccccc2)c2ccccc12)c1cn(Cc2ccccc2)c2ccccc12` [IX, bis(1-benzyl-1H-indol-3-yl)methanone], in assay [2], the “extent of block of CaV3.2 whole-cell inward Ca2+ current” value is “partially blocked; also recorded: only partial inhibition” and the IC50 is 2.97 ± 0.29 µM. Moreover, in assay [3], the “extent of block of CaV3.3 whole-cell inward Ca2+ current” value is reported as “partially blocked; also recorded: only partial inhibition” and the concentration for half-maximal inhibition (IC50) was found to be 2.09 ± 0.69 µM.

Broadly, the viability is a per cent measure of how many cells are alive, often set against a control. A lower viability goes with more harm to the cells. As a reminder, the IC50 is the concentration that inhibits the measured activity by half.
